In patent US9511134B2, “Inducing immune responses to influenza virus using polypeptide and nucleic acid compositions” (priority 2006, dated 2016):
Where no end group is shown, it is not given here.

What was measured:
Assay in all cases: biochemical
Assay type in all cases: binding
[1] = molecular target: T1, DRB1*0301 (Homo sapiens, UniProt P01903+P01911, A100K/A102G/A103R/A169T/F55Y/I96L/K41T/L162R/M171V/P40S/Q125H/Q178H/Q39Y/R42S/S66N/T106N/T262R/W38E/Y61H)
T1 construct: made in house; host or cells: EBV-transformed homozygous human B cell lines, transfected fibroblasts or single-allele 721.221 transfectants

[2] = molecular target: T2, DRB1*1501 (Homo sapiens, UniProt P01903+P01911); conditions: read-out: IC50 nM to purified HLA DRB1*1501
T2 construct: made in house; host or cells: EBV-transformed homozygous human B cell lines, transfected fibroblasts or single-allele 721.221 transfectants

[3] = molecular target: DRB1*1302 (Homo sapiens, UniProt P01903+P01911, A100E/A169T/K41T/L162R/M171V/P40S/Q125H/Q178H/Q39Y/Q99D/R42S/S66N/T262R/V115G/W38E/Y61H); conditions: read-out: IC50 nM to purified HLA DRB1*1302
[4] = molecular target: T3, DRB1*0401 (Homo sapiens, UniProt P01903+P01911, A100K/A169T/F76Y/I96L/K127E/L162R/M171V/N62H/P40V/Q125Y/R42H/S133A/S149N/S66Y/V115G/V209L/W38E); conditions: read-out: IC50 nM to purified HLA DRB1*0401
T3 construct: made in house; host or cells: EBV-transformed homozygous human B cell lines, transfected fibroblasts or single-allele 721.221 transfectants

[5] = molecular target: DRB1*0404 (Homo sapiens, UniProt P01903+P01911, A100R/A169T/F76Y/I96L/K127E/L162R/M171V/N62H/P40V/Q125Y/R42H/S133A/S149N/S66Y/V209L/W38E); conditions: IC50 nM to purified HLA DRB1*0404
[6] = molecular target: T4, DRB1*0101 (Homo sapiens, UniProt P01903+P01911, A100R/D57E/F55L/F60I/F76Y/I96L/L162R/M171V/P40L/Q125E/R42F/V115G/Y59C); conditions: IC50 nM to purified HLA DRB1*0101
T4 construct: made in house; host or cells: EBV-transformed homozygous human B cell lines, transfected fibroblasts or single-allele 721.221 transfectants

T1 sequence (P01903 26-254, other chains not shown): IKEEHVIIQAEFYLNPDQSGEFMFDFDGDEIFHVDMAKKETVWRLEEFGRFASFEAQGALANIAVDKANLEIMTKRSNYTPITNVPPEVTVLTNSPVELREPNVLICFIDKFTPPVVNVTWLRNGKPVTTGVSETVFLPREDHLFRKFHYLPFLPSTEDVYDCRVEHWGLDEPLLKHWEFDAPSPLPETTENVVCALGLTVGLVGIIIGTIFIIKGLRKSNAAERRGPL
Chain of DRB1*1302 (P01903 26-254 limits assumed, other chains not shown): as the sequence (P01903 26-254, other chains not shown) above

| Compound | IC50 [1] | IC50 [2] | IC50 [3] | IC50 [4] | IC50 [5] | IC50 [6] |
| --- | --- | --- | --- | --- | --- | --- |
| CC[C@H](C)[C@H](NC(=O)[C@H](CC(C)C)NC(=O)[C@H](CC(=O)O)NC(=O)[C@H](CC(=O)O)NC(=O)[C@H](CCCCN)NC(=O)[C@H](CC(C)C)NC(=O)CNC(=O)[C@H](C)NC(=O)[C@@H](N)CO)C(=O)N[C@@H](CCC(=O)O)C(=O)N[C@@H](CC(N)=O)C(=O)N[C@@H](CC(C)C)C(=O)N[C@@H](CCC(N)=O)C(=O)N[C@@H](C)C(=O)N[C@@H](Cc1ccc(O)cc1)C(=O)O [Flu.M1.229] | 64 nM |  |  |  |  |  |
| CC(C)C[C@H](NC(=O)[C@H](C)NC(=O)CNC(=O)[C@H](CCC(N)=O)NC(=O)[C@@H](N)[C@@H](C)O)C(=O)N[C@@H](CC(C)C)C(=O)N[C@@H](CC(N)=O)C(=O)N[C@@H](CC(=O)O)C(=O)N[C@@H](CCCCN)C(=O)N[C@@H](Cc1c[nH]cn1)C(=O)N[C@@H](CO)C(=O)N[C@@H](CC(N)=O)C(=O)NCC(=O)N[C@H](C(=O)N[C@H](C(=O)N[C@@H](CCCCN)C(=O)N[C@@H](CC(=O)O)C(=O)O)C(C)C)[C@@H](C)O [Flu.NA.115] | 177 nM | 822 nM | 468 nM | 19000 nM |  |  |
| CC(C)C[C@H](NC(=O)[C@H](CCC(=O)O)NC(=O)[C@@H](NC(=O)[C@H](CO)NC(=O)[C@H](CCCCN)NC(=O)[C@@H](N)C(C)C)C(C)C)C(=O)N[C@@H](CC(=O)O)C(=O)N[C@@H](C)C(=O)N1CCC[C@H]1C(=O)N[C@@H](CC(N)=O)C(=O)N[C@@H](Cc1ccc(O)cc1)C(=O)N[C@@H](Cc1c[nH]cn1)C(=O)N[C@@H](Cc1ccc(O)cc1)C(=O)N[C@@H](CCC(=O)O)C(=O)N[C@@H](CCC(=O)O)C(=O)O [Flu.NA.244] | 65 nM |  | 197 nM |  |  |  |
| CC[C@H](C)[C@H](NC(=O)[C@H](CCCNC(=N)N)NC(=O)[C@H](CCCNC(=N)N)NC(=O)[C@@H](NC(=O)[C@H](CCC(=O)O)NC(=O)[C@H](CCC(=O)O)NC(=O)[C@H](CCCCN)NC(=O)[C@H](CC(=O)O)NC(=O)[C@H](Cc1ccc(O)cc1)NC(=O)[C@H](CC(C)C)NC(=O)[C@@H](NC(=O)[C@H](CC(C)C)NC(=O)[C@H](CCC(=O)O)NC(=O)[C@@H](N)CCCNC(=N)N)[C@@H](C)CC)[C@@H](C)CC)C(=O)N[C@@H](Cc1c[nH]c2ccccc12)C(=O)O [Flu.NP.109] | 59 nM |  |  |  | 1800 nM |  |
| CSCC[C@H](NC(=O)[C@H](C)NC(=O)[C@H](CCCCN)NC(=O)[C@@H](N)CCC(N)=O)C(=O)N[C@@H](CCSC)C(=O)N[C@@H](CC(=O)O)C(=O)N[C@@H](CCC(N)=O)C(=O)N[C@H](C(=O)N[C@@H](CCCNC(=N)N)C(=O)N[C@@H](CCC(=O)O)C(=O)N[C@@H](CO)C(=O)N[C@@H](CCCNC(=N)N)C(=O)N[C@@H](CC(N)=O)C(=O)N1CCC[C@H]1C(=O)NCC(=O)O)C(C)C [Flu.NP.238] | 450 nM |  |  |  | 1830 nM |  |
| CC(C)C[C@H](NC(=O)[C@H](CO)NC(=O)[C@H](CCCCN)NC(=O)[C@H](CCC(N)=O)NC(=O)[C@H](CC(=O)O)NC(=O)[C@H](CCCNC(=N)N)NC(=O)[C@H](CCCNC(=N)N)NC(=O)[C@H](CC(C)C)NC(=O)[C@H](CCCNC(=N)N)NC(=O)[C@H](CC(=O)O)NC(=O)[C@@H](N)CC(C)C)C(=O)N[C@@H](CCCNC(=N)N)C(=O)NCC(=O)N[C@@H](CCCNC(=N)N)C(=O)NCC(=O)O [Flu.NS1.36] | 83 nM |  |  |  |  | 800 nM |
| CC[C@H](C)[C@H](NC(=O)[C@H](CCCNC(=N)N)NC(=O)[C@H](CCC(=O)O)NC(=O)[C@@H](N)C(C)C)C(=O)N[C@@H](CC(C)C)C(=O)N[C@@H](CCCCN)C(=O)N[C@@H](CCC(=O)O)C(=O)N[C@@H](CCC(=O)O)C(=O)N[C@@H](CO)C(=O)N[C@@H](CC(=O)O)C(=O)N[C@@H](CCC(=O)O)C(=O)N[C@@H](C)C(=O)N[C@@H](CC(C)C)C(=O)N[C@@H](CCCCN)C(=O)N[C@@H](CCSC)C(=O)O [Flu.NS1.68] | 1050 nM |  | 5060 nM | 679 nM |  | 5190 nM |
| CC[C@H](C)[C@H](NC(=O)[C@H](CC(C)C)NC(=O)[C@H](CCSC)NC(=O)[C@H](CC(C)C)NC(=O)[C@H](Cc1c[nH]c2ccccc12)NC(=O)[C@H](CC(=O)O)NC(=O)[C@H](CCCNC(=N)N)NC(=O)[C@H](CO)NC(=O)[C@H](CCSC)NC(=O)[C@H](CCC(=O)O)NC(=O)[C@H](CCC(=O)O)NC(=O)[C@@H](N)CC(C)C)C(=O)N1CCC[C@H]1C(=O)N[C@@H](CCCCN)C(=O)N[C@@H](CCC(N)=O)C(=O)O [Flu.NS1.98] | 170 nM |  |  |  |  |  |
| CC[C@H](C)[C@H](NC(=O)[C@H](C)NC(=O)[C@@H](N)CCC(N)=O)C(=O)N[C@@H](CCSC)C(=O)N[C@@H](CC(=O)O)C(=O)N[C@@H](CCCCN)C(=O)N[C@@H](CC(=O)O)C(=O)N[C@H](C(=O)N[C@H](C(=O)N[C@@H](CC(C)C)C(=O)N[C@@H](CCCCN)C(=O)N[C@@H](C)C(=O)N[C@@H](CC(N)=O)C(=O)N[C@@H](Cc1ccccc1)C(=O)N[C@@H](CO)C(=O)O)[C@@H](C)CC)[C@@H](C)CC [Flu.NS1.124] |  |  |  |  | 310 nM |  |
| CC[C@H](C)[C@H](NC(=O)[C@H](CO)NC(=O)[C@H](CCC(=O)O)NC(=O)CN)C(=O)N[C@H](C(=O)N[C@H](C(=O)N[C@@H](CCC(=O)O)C(=O)N[C@@H](CC(C)C)C(=O)N[C@@H](CC(=O)O)C(=O)N[C@@H](CC(=O)O)C(=O)N1CCC[C@H]1C(=O)N[C@@H](CC(N)=O)C(=O)N[C@@H](C)C(=O)N[C@@H](CC(C)C)C(=O)N[C@@H](CC(C)C)C(=O)O)C(C)C)[C@@H](C)CC [Flu.PA.61] |  |  | 59 nM |  | 80 nM |  |
| CC(C)C[C@H](NC(=O)[C@H](CCCCN)NC(=O)[C@H](CCCNC(=N)N)NC(=O)[C@H](CO)NC(=O)[C@H](CCC(=O)O)NC(=O)[C@H](C)NC(=O)[C@H](CO)NC(=O)[C@H](Cc1ccccc1)NC(=O)CNC(=O)[C@H](CCC(=O)O)NC(=O)[C@@H](N)CC(C)C)C(=O)N[C@@H](CC(C)C)C(=O)N[C@@H](CC(C)C)C(=O)N[C@H](C(=O)N[C@H](C(=O)O)C(C)C)C(C)C [Flu.PA.658] | 661 nM |  | 2270 nM | 861 nM |  | 12 nM |
| CC[C@H](C)[C@H](NC(=O)[C@@H](N)CC(C)C)C(=O)N[C@@H](CC(=O)O)C(=O)N[C@@H](Cc1ccccc1)C(=O)N[C@@H](CC(C)C)C(=O)N[C@@H](CCCCN)C(=O)N[C@@H](CC(=O)O)C(=O)N[C@H](C(=O)N[C@@H](CCSC)C(=O)N[C@@H](CCC(=O)O)C(=O)N[C@@H](CO)C(=O)N[C@@H](CCSC)C(=O)N[C@@H](CC(=O)O)C(=O)N[C@@H](CCCCN)C(=O)N[C@@H](CCC(=O)O)C(=O)O)C(C)C [Flu.PB1.166] | 120 nM |  |  |  |  |  |
| CC[C@H](C)[C@H](NC(=O)[C@@H](NC(=O)[C@H](CC(C)C)NC(=O)[C@H](CO)NC(=O)[C@H](CCC(N)=O)NC(=O)[C@H](CC(=O)O)NC(=O)[C@@H](NC(=O)[C@H](CC(=O)O)NC(=O)[C@H](CC(=O)O)NC(=O)[C@H](CC(N)=O)NC(=O)[C@H](CCCNC(=N)N)NC(=O)[C@@H](NC(=O)[C@H](CCC(=O)O)NC(=O)CNC(=O)CN)C(C)C)C(C)C)[C@@H](C)CC)C(=O)O [Flu.PB2.250] |  |  | 2500 nM |  | 458 nM |  |
| CSCC[C@H](NC(=O)[C@H](CCCCN)NC(=O)[C@H](CO)NC(=O)[C@@H](N)C(C)C)C(=O)NCC(=O)N[C@H](C(=O)N[C@@H](CC(=O)O)C(=O)N[C@@H](CCC(=O)O)C(=O)N[C@@H](Cc1ccc(O)cc1)C(=O)N[C@@H](CO)C(=O)N[C@@H](CO)C(=O)N[C@H](C(=O)N[C@@H](CCC(=O)O)C(=O)N[C@@H](CCCNC(=N)N)C(=O)N[C@H](C(=O)O)C(C)C)[C@@H](C)O)C(C)C [Flu.PB2.483] | 1020 nM |  | 1850 nM |  |  |  |
| CC[C@H](C)[C@H](NC(=O)[C@H](CC(C)C)NC(=O)[C@@H](N)Cc1ccccc1)C(=O)N[C@@H](CC(C)C)C(=O)NCC(=O)N[C@@H](CCCCN)C(=O)N[C@@H](CCC(=O)O)C(=O)N[C@@H](CC(=O)O)C(=O)N[C@@H](CCCNC(=N)N)C(=O)N[C@@H](CCCNC(=N)N)C(=O)N[C@@H](Cc1ccc(O)cc1)C(=O)NCC(=O)N1CCC[C@H]1C(=O)N[C@@H](C)C(=O)N[C@@H](CC(C)C)C(=O)O [Flu.PB2.697] | 565 nM |  | 118 nM | 1740 nM |  | 8390 nM |
| CC[C@H](C)[C@H](NC(=O)[C@H](CCCNC(=N)N)NC(=O)[C@H](CCCCN)NC(=O)[C@@H](NC(=O)[C@H](C)NC(=O)[C@@H](NC(=O)[C@H](CCC(N)=O)NC(=O)[C@H](CO)NC(=O)[C@H](CC(=O)O)NC(=O)[C@@H](NC(=O)[C@H](CC(C)C)NC(=O)[C@@H](NC(=O)[C@H](CO)NC(=O)[C@H](CO)NC(=O)[C@@H](N)CC(=O)O)[C@@H](C)CC)[C@@H](C)O)[C@@H](C)O)[C@@H](C)O)C(=O)O [Flu.PB2.743] | 36 nM |  |  |  |  |  |
| CEQIADSQHRSHRQM [Flu.M1.154] | 804 nM |  |  |  |  |  |
